Source: ChEMBL document CHEMBL1649315, “Extended-spectrum cephalosporinase in Acinetobacter baumannii” (Antimicrob Agents Chemother, 2010)
Values after ≈ are worked out from the molar mass of the structure shown.

Legend:
Acinetobacter baumannii [1] = assay: Antimicrobial activity against Acinetobacter baumannii KI by Etest method in presence of Tazobactam; assay type: functional
Escherichia coli [2] = assay: Antimicrobial activity against Escherichia coli TOP10 harboring pADC-33 plasmid carrying entire blaAmpC gene with alanine residue deletion at 215 position and R210P substitution by Etest method; assay type: functional
Acinetobacter baumannii [3] = assay: Ratio of Kcat to Km for Acinetobacter baumannii ADC-33 beta-lactamase to Kcat to Km for Acinetobacter baumannii ADC-11 beta-lactamase
Escherichia coli [4] = assay: Antimicrobial activity against Escherichia coli TOP10 harboring pADC-11 plasmid by Etest method; assay type: functional
Escherichia coli [5] = assay: Antimicrobial activity against Escherichia coli TOP10 harboring pADC-33 plasmid by Etest method; assay type: functional
Acinetobacter baumannii [6] = assay: Antimicrobial activity against Acinetobacter baumannii CIP70.10 by Etest method in presence of Tazobactam; assay type: functional
Escherichia coli [7] = assay: Antimicrobial activity against Escherichia coli TOP10 harboring pADC-11 plasmid by Etest method in presence of Tazobactam; assay type: functional
Escherichia coli [8] = assay: Antimicrobial activity against Escherichia coli TOP10 harboring pADC-11 plasmid carrying entire blaAmpC gene with alanine residue deletion at 215 position and R210P substitution by Etest method in presence of Tazobactam; assay type: functional
Escherichia coli [9] = assay: Antimicrobial activity against Escherichia coli TOP10 harboring pADC-50 plasmid by Etest method; assay type: functional
Escherichia coli [10] = assay: Antimicrobial activity against Escherichia coli TOP10 harboring pADC-11 plasmid carrying entire blaAmpC gene with alanine residue insertion at 215 position and R210P substitution by Etest method; assay type: functional
Escherichia coli [11] = assay: Antimicrobial activity against Escherichia coli TOP10 harboring pADC-11 plasmid carrying entire blaAmpC gene with alanine residue insertion at 215 position by Etest method; assay type: functional
Escherichia coli [12] = assay: Antimicrobial activity against Escherichia coli TOP10 harboring pADC-33 plasmid carrying entire blaAmpC gene by Etest method in presence of Tazobactam; assay type: functional
Escherichia coli [13] = assay: Antimicrobial activity against Escherichia coli TOP10 harboring pADC-33 plasmid by Etest method in presence of Tazobactam; assay type: functional
Escherichia coli [14] = assay: Antimicrobial activity against Escherichia coli TOP10 harboring pADC-11 plasmid carrying entire blaAmpC gene with alanine residue insertion at 215 position by Etest method in presence of Tazobactam; assay type: functional
Escherichia coli [15] = assay: Antimicrobial activity against Escherichia coli TOP10 harboring pTOPO plasmid by Etest method; assay type: functional
Acinetobacter baumannii [16] = assay: Antimicrobial activity against Acinetobacter baumannii KI by Etest method; assay type: functional
Escherichia coli [17] = assay: Antimicrobial activity against Escherichia coli TOP10 harboring pTOPO plasmid by Etest method in presence of Tazobactam; assay type: functional
Escherichia coli [18] = assay: Antimicrobial activity against Escherichia coli TOP10 harboring pADC-11 plasmid with entire blaAmpC gene by Etest method; assay type: functional
Escherichia coli [19] = assay: Antimicrobial activity against Escherichia coli TOP10 harboring pADC-33 plasmid carrying entire blaAmpC gene with alanine residue deletion at 215 position and R210P substitution by Etest method in presence of Tazobactam; assay type: functional
Escherichia coli [20] = assay: Antimicrobial activity against Escherichia coli TOP10 harboring pADC-33 plasmid with entire blaAmpC gene by Etest method; assay type: functional
Acinetobacter baumannii [21] = assay: Antimicrobial activity against Acinetobacter baumannii CIP70.10 by Etest method; assay type: functional
Escherichia coli [22] = assay: Antimicrobial activity against Escherichia coli TOP10 harboring pADC-33 plasmid with entire blaAmpC gene with alanine residue deletion at 215 position by Etest method; assay type: functional
Escherichia coli [23] = assay: Antimicrobial activity against Escherichia coli TOP10 harboring pADC-50 plasmid by Etest method in presence of Tazobactam; assay type: functional
Escherichia coli [24] = assay: Antimicrobial activity against Escherichia coli TOP10 harboring pADC-11 plasmid carrying entire blaAmpC gene by Etest method in presence of Tazobactam; assay type: functional
Escherichia coli [25] = assay: Antimicrobial activity against Escherichia coli TOP10 harboring pADC-33 plasmid carrying entire blaAmpC gene with alanine residue deletion at 215 position by Etest method in presence of Tazobactam; assay type: functional
Acinetobacter baumannii [26] = assay: Antimicrobial activity against Acinetobacter baumannii AYE expressing VEB-1 gene by Etest method; assay type: functional
Acinetobacter baumannii [27] = assay: Antimicrobial activity against Acinetobacter baumannii AYE expressing VEB-1 gene by Etest method in presence of Tazobactam; assay type: functional
[28] = tested on: CCN1CCN(C(=O)N[C@@H](C(=O)N[C@@H]2C(=O)N3[C@@H]2SC(C)(C)[C@@H]3C(=O)O)c2ccccc2)C(=O)C1=O; assay: (§1) Ratio of Kcat to Km for Acinetobacter baumannii ADC-11 beta-lactamase
[29] = tested on: CC1(C)S[C@@H]2[C@H](NC(=O)Cc3ccccc3)C(=O)N2[C@H]1C(=O)O; assay: as §1
[30] = tested on: CC1(C)S[C@@H]2[C@H](NC(=O)[C@H](N)c3ccccc3)C(=O)N2[C@H]1C(=O)O; assay: as §1
[31] = tested on: CC(C)(O/N=C(\C(=O)N[C@@H]1C(=O)N2C(C(=O)[O-])=C(C[n+]3ccccc3)CS[C@H]12)c1csc(N)n1)C(=O)O; assay: as §1
[32] = tested on: CO/N=C(\C(=O)N[C@@H]1C(=O)N2C(C(=O)[O-])=C(C[n+]3cccc4c3CCC4)CS[C@H]12)c1csc(N)n1; assay: as §1
[33] = tested on: CO[C@@]1(NC(=O)Cc2cccs2)C(=O)N2C(C(=O)O)=C(COC(N)=O)CS[C@@H]21; assay: Ratio of Kcat to Ki for Acinetobacter baumannii ADC-11 beta-lactamase
[34] = tested on: O=C(Cc1cccs1)N[C@@H]1C(=O)N2C(C(=O)[O-])=C(C[n+]3ccccc3)CS[C@H]12; assay: (§2) Activity of Acinetobacter baumannii ADC-11 beta-lactamase
[35] = tested on: CC(=O)OCC1=C(C(=O)O)N2C(=O)[C@@H](NC(=O)Cc3cccs3)[C@H]2SC1; assay: as §2
[36] = tested on: CCN1CCN(C(=O)N[C@@H](C(=O)N[C@@H]2C(=O)N3[C@@H]2SC(C)(C)[C@@H]3C(=O)O)c2ccccc2)C(=O)C1=O; assay: as §2
[37] = tested on: CO/N=C(\C(=O)N[C@@H]1C(=O)N2C(C(=O)O)=C(COC(C)=O)CS[C@H]12)c1csc(N)n1; assay: as §2
[38] = tested on: CC1(C)S[C@@H]2[C@H](NC(=O)Cc3ccccc3)C(=O)N2[C@H]1C(=O)O; assay: as §2
[39] = tested on: CC1(C)S[C@@H]2[C@H](NC(=O)[C@H](N)c3ccccc3)C(=O)N2[C@H]1C(=O)O; assay: as §2
[40] = tested on: CC(C)(O/N=C(\C(=O)N[C@@H]1C(=O)N2C(C(=O)[O-])=C(C[n+]3ccccc3)CS[C@H]12)c1csc(N)n1)C(=O)O; assay: as §2
[41] = tested on: CO/N=C(\C(=O)N[C@@H]1C(=O)N2C(C(=O)[O-])=C(C[n+]3cccc4c3CCC4)CS[C@H]12)c1csc(N)n1; assay: as §2

Compound: CCN1CCN(C(=O)N[C@@H](C(=O)N[C@@H]2C(=O)N3[C@@H]2SC(C)(C)[C@@H]3C(=O)O)c2ccccc2)C(=O)C1=O [PIPERACILLIN]
- MIC (Acinetobacter baumannii [1]): 128 µg/mL
- MIC (Escherichia coli [2]): > 256 µg/mL
- kcat/Km (Acinetobacter baumannii [3]): 1.2e+06 M⁻¹ s⁻¹
- MIC (Escherichia coli [4]): 8 µg/mL (≈ 15.5 µM)
- MIC (Escherichia coli [5]): 32 µg/mL (≈ 61.8 µM)
- MIC (Acinetobacter baumannii [6]): 4 µg/mL
- MIC (Escherichia coli [7]): 8 µg/mL
- MIC (Escherichia coli [8]): 256 µg/mL
- MIC (Escherichia coli [9]): 16 µg/mL (≈ 30.9 µM)
- MIC (Escherichia coli [10]): > 256 µg/mL
- MIC (Escherichia coli [11]): > 256 µg/mL
- MIC (Escherichia coli [12]): > 256 µg/mL
- MIC (Escherichia coli [13]): 32 µg/mL
- MIC (Escherichia coli [14]): 256 µg/mL
- MIC (Escherichia coli [15]): 1 µg/mL (≈ 1.93 µM)
- MIC (Acinetobacter baumannii [16]): > 256 µg/mL
- MIC (Escherichia coli [17]): 1 µg/mL
- MIC (Escherichia coli [18]): > 256 µg/mL
- MIC (Escherichia coli [19]): 128 µg/mL
- MIC (Escherichia coli [20]): > 256 µg/mL
- MIC (Acinetobacter baumannii [21]): 16 µg/mL (≈ 30.9 µM)
- MIC (Escherichia coli [22]): > 256 µg/mL
- MIC (Escherichia coli [23]): 16 µg/mL
- MIC (Escherichia coli [24]): 128 µg/mL
- MIC (Escherichia coli [25]): 256 µg/mL
- MIC (Acinetobacter baumannii [26]): > 256 µg/mL
- MIC (Acinetobacter baumannii [27]): 128 µg/mL

Compound: ADC-11 (Acinetobacter baumannii) (from UniProt D6NSM8)
- kcat/Km [28]: 200000 M⁻¹ s⁻¹
- kcat/Km [29]: 4e+06 M⁻¹ s⁻¹
- kcat/Km [30]: 1e+06 M⁻¹ s⁻¹
- kcat/Km [31]: 1000 M⁻¹ s⁻¹
- kcat/Km [32]: 4000 M⁻¹ s⁻¹
- kcat/Km [33]: 3e+06 M⁻¹ s⁻¹
- kcat [34]: 600 s⁻¹
- Km [35]: 210 µM
- kcat [35]: 550 s⁻¹
- kcat [36]: 5 s⁻¹
- kcat [37]: 0.2 s⁻¹
- Km [38]: 12 µM
- kcat [38]: 45 s⁻¹
- Km [39]: 7 µM
- kcat [39]: 5 s⁻¹
- Km [40]: 10 µM
- kcat [40]: 0.01 s⁻¹
- Km [41]: 1700 µM
- kcat [41]: 8 s⁻¹
